This is an account of results in publication PMC3849818 (Journal of medicinal chemistry, 2013).

As usually defined, the Kd is a measure of binding affinity in units of concentration.

One assay addresses T1, OX2 receptor (Homo sapiens, UniProt O43614).
T1 sequence (O43614 1-444): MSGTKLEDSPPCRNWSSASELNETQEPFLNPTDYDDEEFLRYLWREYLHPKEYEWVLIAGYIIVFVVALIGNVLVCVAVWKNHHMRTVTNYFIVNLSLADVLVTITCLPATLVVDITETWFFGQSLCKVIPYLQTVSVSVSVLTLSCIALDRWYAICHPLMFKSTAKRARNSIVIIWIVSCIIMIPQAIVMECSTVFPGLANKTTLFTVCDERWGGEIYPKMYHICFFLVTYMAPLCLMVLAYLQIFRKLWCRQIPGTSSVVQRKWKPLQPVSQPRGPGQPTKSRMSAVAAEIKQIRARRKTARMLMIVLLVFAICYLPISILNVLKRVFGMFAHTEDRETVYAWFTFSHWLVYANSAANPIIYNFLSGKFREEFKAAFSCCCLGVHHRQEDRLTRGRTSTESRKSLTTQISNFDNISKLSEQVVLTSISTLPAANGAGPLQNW
The experiment in a line: OX2 calcium mobilization functional assay. Type of assay: cell-based. A general note: Calcium assays in cells follow changes in intracellular calcium, usually with a dye or a luminescent sensor.

The next assay has as its target T2, orexin 1 (OX1) receptor (Homo sapiens, UniProt O43613).
T2 sequence (O43613 1-425): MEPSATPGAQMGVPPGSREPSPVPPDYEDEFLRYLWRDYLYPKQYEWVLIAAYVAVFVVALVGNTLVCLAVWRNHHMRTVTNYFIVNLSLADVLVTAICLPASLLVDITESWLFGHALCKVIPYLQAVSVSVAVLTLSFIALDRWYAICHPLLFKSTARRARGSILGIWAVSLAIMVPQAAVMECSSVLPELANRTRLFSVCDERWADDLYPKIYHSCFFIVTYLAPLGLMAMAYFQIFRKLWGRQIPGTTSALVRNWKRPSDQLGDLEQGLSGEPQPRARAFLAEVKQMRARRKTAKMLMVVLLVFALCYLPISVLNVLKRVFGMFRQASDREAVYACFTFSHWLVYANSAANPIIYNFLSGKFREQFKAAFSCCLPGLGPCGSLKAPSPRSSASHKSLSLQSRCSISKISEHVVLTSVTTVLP
The experiment in a line: OX1 calcium mobilization functional assay. It counts as cell-based. The following applies: for OX2/OX1: ratio of Ke values.

For the molecule `COc1cc2c(cc1O)C(Cc1ccc(OC)c(OC)c1)N(CC(=O)NCc1ccccc1)CC2` (centres unmarked) [Compound 11, N-benzyl-2-{1-[(3,4-dimethoxyphenyl)methyl]-7-hydroxy-6-methoxy-1,2,3,4-tetrahydroisoquinolin-2-yl}acetamide], the Kd at OX2 receptor stood at 5.74 ± 0.096 µM.

Take `CCOc1cc2c(cc1OC)CCN(CC(=O)NCc1ccccc1)C2Cc1ccc(OC)c(OC)c1` (centres unmarked) [Compound 12, N-benzyl-2-{1-[(3,4-dimethoxyphenyl)methyl]-7-ethoxy-6-methoxy-1,2,3,4-tetrahydroisoquinolin-2-yl}acetamide]: the OX2/OX1 at orexin 1 (OX1) receptor is given as more than 333. For the same molecule, the Kd at OX2 receptor is more than 10 µM.

As to `CCCOc1cc2c(cc1OC)CCN(CC(=O)NCc1ccccc1)C2Cc1ccc(OC)c(OC)c1` (centres unmarked) [Compound 13, N-benzyl-2-{1-[(3,4-dimethoxyphenyl)methyl]-6-methoxy-7-propoxy-1,2,3,4-tetrahydroisoquinolin-2-.yl}acetamide], the OX2/OX1 at orexin 1 (OX1) receptor is reported as more than 578. At OX2 receptor, the Kd was more than 10 µM.

As for `CCCCOc1cc2c(cc1OC)CCN(CC(=O)NCc1ccccc1)C2Cc1ccc(OC)c(OC)c1` (centres unmarked) [Compound 14, N-benzyl-2-{7-butoxy-1-[(3,4-dimethoxyphenyl)methyl]-6-methoxy-1,2,3,4-tetrahydroisoquinolin-2-yl}acetamide], on OX2 receptor, the Kd was 1.89 ± 0.48 µM.

Consider `CCCCCCOc1cc2c(cc1OC)CCN(CC(=O)NCc1ccccc1)C2Cc1ccc(OC)c(OC)c1` (centres unmarked) [Compound 15, N-benzyl-2-{1-[(3,4-dimethoxyphenyl)methyl]-7-(hexyloxy)-6-methoxy-1,2,3,4-tetrahydroisoquinolin-2-yl}acetamide], for which the OX2/OX1 on orexin 1 (OX1) receptor is recorded as more than 31.7. Moreover, the Kd at OX2 receptor was more than 10 µM.

For the molecule `COc1ccc(CC2c3cc(OCCC(C)C)c(OC)cc3CCN2CC(=O)NCc2ccccc2)cc1OC` (centres unmarked) [Compound 16, N-benzyl-2-{1-[(3,4-dimethoxyphenyl)methyl]-6-methoxy-7-(3-methylbutoxy)-1,2,3,4-tetrahydroisoquinolin-2-yl}acetamide], the Kd on OX2 receptor was 3.92 ± 1.2 µM.

In the case of `COc1ccc(CC2c3cc(OCC4CCCCC4)c(OC)cc3CCN2CC(=O)NCc2ccccc2)cc1OC` (centres unmarked) [Compound 17, N-benzyl-2-[7-(cyclohexylmethoxy)-1-[(3,4-dimethoxyphenyl)methyl]-6-methoxy-1,2,3,4-tetrahydroisoquinolin-2-yl]acetamide], the “OX1 activity, bound stated” value on orexin 1 (OX1) receptor (no activity up to the stated concentration) is more than 10 µM.

Regarding `COc1ccc(CC2c3cc(OCCCCOc4ccccc4)c(OC)cc3CCN2CC(=O)NCc2ccccc2)cc1OC` (centres unmarked) [Compound 24, N-benzyl-2-{1-[(3,4-dimethoxyphenyl)methyl]-6-methoxy-7-(4-phenoxybutoxy)-1,2,3,4-tetrahydroisoquinolin-2-yl}acetamide], the OX2/OX1 on orexin 1 (OX1) receptor is recorded as more than 230. In addition, the Kd on OX2 receptor was more than 10 µM.

On to `CCCC(=O)Oc1cc2c(cc1OC)CCN(CC(=O)NCc1ccccc1)C2Cc1ccc(OC)c(OC)c1` (centres unmarked) [Compound 25, 2-[(benzylcarbamoyl)methyl]-1-[(3,4-dimethoxyphenyl)methyl]-6-methoxy-1,2,3,4-tetrahydroisoquinolin-7-yl butanoate], for which the OX2/OX1 at orexin 1 (OX1) receptor was more than 127. Besides, the Kd on OX2 receptor was more than 10 µM.

Consider `COc1ccc(CC2c3cc(OS(C)(=O)=O)c(OC)cc3CCN2CC(=O)NCc2ccccc2)cc1OC` (centres unmarked) [Compound 26, 2-[(benzylcarbamoyl)methyl]-1-[(3,4-dimethoxyphenyl)methyl]-6-methoxy-1,2,3,4-tetrahydroisoquinolin-7-yl methanesulfonate], for which, at OX2 receptor, the Kd was found to be 2.17 ± 0.79 µM.

Take `COc1ccc(CC2c3cc(OS(=O)(=O)C(F)(F)F)c(OC)cc3CCN2CC(=O)NCc2ccccc2)cc1OC` (centres unmarked) [Compound 27, 2-[(benzylcarbamoyl)methyl]-1-[(3,4-dimethoxyphenyl)methyl]-6-methoxy-1,2,3,4-tetrahydroisoquinolin-7-yl trifluoromethanesulfonate]: on orexin 1 (OX1) receptor, the OX2/OX1 is more than 1000. The Kd on OX2 receptor was more than 10 µM.

For `COc1ccc(CC2c3cc(OCC(F)(F)F)c(OC)cc3CCN2CC(=O)NCc2ccccc2)cc1OC` (centres unmarked) [Compound 28, N-benzyl-2-{1-[(3,4-dimethoxyphenyl)methyl]-6-methoxy-7-(2,2,2-trifluoroethoxy)-1,2,3,4-tetrahydroisoquinolin-2-yl}acetamide], on orexin 1 (OX1) receptor, the “selectivity over the OX2 receptor” value is recorded as “over 1000 fold” and the OX2/OX1 was more than 1060. The Kd at OX2 receptor was more than 10 µM.

In the case of `COc1ccc(CC2c3cc(OS(=O)(=O)c4ccccc4)c(OC)cc3CCN2CC(=O)NCc2ccccc2)cc1OC` (centres unmarked) [Compound 29, 2-[(benzylcarbamoyl)methyl]-1-[(3,4-dimethoxyphenyl)methyl]-6-methoxy-1,2,3,4-tetrahydroisoquinolin-7-yl benzenesulfonate], the Kd at OX2 receptor worked out at 2.9 ± 0.191 µM.

As for `COc1ccc(CC2c3cc(OC)c(OC)cc3CCN2CC(=O)N2CCc3ccccc3C2)cc1OC` (centres unmarked) [Compound 35, 2-{1-[(3,4-dimethoxyphenyl)methyl]-6,7-dimethoxy-1,2,3,4-tetrahydroisoquinolin-2-yl}-1-(1,2,3,4-tetrahydroisoquinolin-2-yl)ethan-1-one], the Kd on OX2 receptor amounted to 9 ± 0.76 µM.

With `COc1ccc(CC2c3cc(OC)c(OC)cc3CCN2CC(=O)N2CCCC(c3ccccc3)C2)cc1OC` (centres unmarked) [Compound 36, 2-{1-[(3,4-dimethoxyphenyl)methyl]-6,7-dimethoxy-1,2,3,4-tetrahydroisoquinolin-2-yl}-1-(3-phenylpiperidin-1-yl)ethan-1-one], on OX2 receptor, the Kd was determined as 9.03 ± 3.8 µM.

Regarding `COc1ccc(CC2c3cc(OC)c(OC)cc3CCN2CC(=O)N(C)Cc2ccccc2)cc1OC` (centres unmarked) [Compound 39, N-benzyl-2-{1-[(3,4-dimethoxyphenyl)methyl]-6,7-dimethoxy-1,2,3,4-tetrahydroisoquinolin-2-yl}-N-methylacetamide], the OX2/OX1 at orexin 1 (OX1) receptor is on record as more than 4.8. Further, the Kd on OX2 receptor was more than 10 µM.

With `COc1ccc(CC2c3cc(OC)c(OC)cc3CCN2CC(=O)Nc2cccc3ccccc23)cc1OC` (centres unmarked) [Compound 41, 2-{1-[(3,4-dimethoxyphenyl)methyl]-6,7-dimethoxy-1,2,3,4-tetrahydroisoquinolin-2-yl}-N-(naphthalen-1-yl)acetamide], the “fold less potent than the benzyl compound (OX1)” value at orexin 1 (OX1) receptor (relative to compound 6) is “around 3.6 fold”.

Consider `COc1ccc(CC2c3cc(OC)c(OC)cc3CCN2CC(=O)Nc2ccccc2-c2ccccc2)cc1OC` (centres unmarked) [Compound 44, 2-{1-[(3,4-dimethoxyphenyl)methyl]-6,7-dimethoxy-1,2,3,4-tetrahydroisoquinolin-2-yl}-N-(2-phenylphenyl)acetamide], for which the Kd at OX2 receptor came to 1.76 ± 0.37 µM.

Regarding `COc1ccc(CC2c3cc(OC)c(OC)cc3CCN2CC(=O)NC2CCCc3ccccc32)cc1OC` (centres unmarked) [Compound 47, 2-{1-[(3,4-dimethoxyphenyl)methyl]-6,7-dimethoxy-1,2,3,4-tetrahydroisoquinolin-2-yl}-N-(1,2,3,4-tetrahydronaphthalen-1-yl)acetamide], at OX2 receptor, the Kd was 0.655 ± 0.19 µM.

With `COc1ccc(CC2c3cc(OC)c(OC)cc3CCN2CC(=O)N[C@@H](C)c2ccccc2)cc1OC` (stereo partly drawn) [Compound 49, 2-{1-[(3,4-dimethoxyphenyl)methyl]-6,7-dimethoxy-1,2,3,4-tetrahydroisoquinolin-2-yl}-N-[(1S)-1-phenylethyl]acetamide], on orexin 1 (OX1) receptor (at 10 μM), the “OX1 activity in words” value was “inactive”. Besides, the “OX2 activity in words” value on OX2 receptor (at 10 μM) was “inactive”.

Regarding `COc1ccc(CC2c3cc(OC)c(OC)cc3CCN2CC(=O)NCc2ccc(Cl)cc2)cc1OC` (centres unmarked) [Compound 51, N-[(4-chlorophenyl)methyl]-2-{1-[(3,4-dimethoxyphenyl)methyl]-6,7-dimethoxy-1,2,3,4-tetrahydroisoquinolin-2-yl}acetamide], the Kd at OX2 receptor is 2.27 ± 0.11 µM.

As for `COc1ccc(CC2c3cc(OC)c(OC)cc3CCN2CC(=O)NCc2ccc(F)cc2)cc1OC` (centres unmarked) [Compound 52, 2-{1-[(3,4-dimethoxyphenyl)methyl]-6,7-dimethoxy-1,2,3,4-tetrahydroisoquinolin-2-yl}-N-[(4-fluorophenyl)methyl]acetamide], the Kd on OX2 receptor turned out to be 3.46 ± 1 µM.

Turning to `COc1ccc(CC2c3cc(OC)c(OC)cc3CCN2CC(=O)NCc2ccc(NC(C)=O)cc2)cc1OC` (centres unmarked) [Compound 57, 2-{1-[(3,4-dimethoxyphenyl)methyl]-6,7-dimethoxy-1,2,3,4-tetrahydroisoquinolin-2-yl}-N-[(4-acetamidophenyl)methyl]acetamide], on orexin 1 (OX1) receptor (no concentration given), the “OX1 activity in words” value was “total loss of OX1 activity”.

On to `CCCCCCNC(=O)Nc1ccc(CNC(=O)CN2CCc3cc(OC)c(OC)cc3C2Cc2ccc(OC)c(OC)c2)cc1` (centres unmarked) [Compound 59, 2-{1-[(3,4-dimethoxyphenyl)methyl]-6,7-dimethoxy-1,2,3,4-tetrahydroisoquinolin-2-yl}-N-({4-[(hexylcarbamoyl)amino]phenyl}methyl)acetamide], for which the dissociation constant (Kd) on OX2 receptor came to 2.44 ± 0.67 µM.

In the case of `CCCCCCCNC(=O)CN1CCc2cc(OC)c(OC)cc2C1Cc1ccc(OC)c(OC)c1` (centres unmarked) [Compound 60, 2-{1-[(3,4-dimethoxyphenyl)methyl]-6,7-dimethoxy-1,2,3,4-tetrahydroisoquinolin-2-yl}-N-heptylacetamide], the Kd at OX2 receptor is 2.31 ± 0.54 µM.
